biological target: T1, BTK (Homo sapiens, UniProt Q06187); test: BTK degradative activity in a RAMOS cell line (Western blot); type: cell-based; conditions: 6 hours after administration, read-out: RAMOS BTK Degradation DC50
T1 construct: BTK Degradative Activity of Exemplary Compounds of the Present Disclosure in a RAMOS Cell Line; host or cells: RAMOS
In short: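 Ramos cells in RPMI with 10% FBS were treated with compound in DMSO at various concentrations for 6 h at 37 °C. BTK was measured by Western blot against GAPDH with infrared fluorescent detection and band quantification. DC50 is the concentration at which 50% of BTK is degraded.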

T1 sequence (Q06187 whole entry): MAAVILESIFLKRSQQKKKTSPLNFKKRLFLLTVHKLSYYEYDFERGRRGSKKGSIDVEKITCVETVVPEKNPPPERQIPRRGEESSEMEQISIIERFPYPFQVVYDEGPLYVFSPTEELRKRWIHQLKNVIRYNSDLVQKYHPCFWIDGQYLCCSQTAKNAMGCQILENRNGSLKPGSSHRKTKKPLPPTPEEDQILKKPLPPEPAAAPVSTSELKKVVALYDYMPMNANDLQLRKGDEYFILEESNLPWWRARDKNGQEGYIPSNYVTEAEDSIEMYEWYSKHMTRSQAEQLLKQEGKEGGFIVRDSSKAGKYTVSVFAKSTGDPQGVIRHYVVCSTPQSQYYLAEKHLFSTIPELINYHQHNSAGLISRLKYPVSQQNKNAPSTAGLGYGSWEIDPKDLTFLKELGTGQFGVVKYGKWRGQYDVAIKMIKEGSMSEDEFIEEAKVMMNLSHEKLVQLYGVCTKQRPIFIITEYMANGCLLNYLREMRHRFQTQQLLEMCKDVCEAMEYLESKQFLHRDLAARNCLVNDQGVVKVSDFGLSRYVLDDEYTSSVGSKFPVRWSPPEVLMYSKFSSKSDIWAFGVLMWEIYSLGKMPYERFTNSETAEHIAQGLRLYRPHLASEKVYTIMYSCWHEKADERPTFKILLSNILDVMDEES

| Compound | DC50 [µM] |
| --- | --- |
| COc1ccc(C(=O)N2CCN(CCCCC(=O)N3CCC(Nc4ncnc5[nH]cc(C(=O)c6ccc(Oc7ccccc7)cc6Cl)c45)CC3)CC2)cc1N1CCC(=O)NC1=O [Compound 72, 1-(5-(4-(5-(4-((5-(2-chloro-4-phenoxybenzoyl)-7H-pyrrolo[2,3-d]pyrimidin-4-yl)amino)piperidin-1-yl)-5-oxopentyl)piperazine-1-carbonyl)-2-methoxyphenyl)dihydropyrimidine-2,4(1H,3H)-dione] | ≥ 0.1 |
| COc1ccc(C(=O)N2CCN(CC3CCN(c4ccc(Nc5ncnc6[nH]cc(C(=O)c7ccc(Oc8ccccc8)cc7Cl)c56)cc4F)CC3)CC2)cc1N1CCC(=O)NC1=O [Compound 74, 1-(5-(4-((1-(4-((5-(2-chloro-4-phenoxybenzoyl)-7H-pyrrolo[2,3-d]pyrimidin-4-yl)amino)-2-fluorophenyl)piperidin-4-yl)methyl)piperazine-1-carbonyl)-2-methoxyphenyl)dihydropyrimidine-2,4(1H,3H)-dione] | ≥ 0.1 |
| O=C1CCC(N2C(=O)c3ccc(N4CCN(CC5CCN(c6ccc(Nc7ncnc8[nH]cc(C(=O)c9ccc(Oc%10ccccc%10)cc9Cl)c78)cc6F)CC5)CC4)cc3C2=O)C(=O)N1 (centres unmarked) [Compound 47, 5-(4-((1-(4-((5-(2-chloro-4-phenoxybenzoyl)-7H-pyrrolo[2,3-d]pyrimidin-4-yl)amino)-2-fluorophenyl)piperidin-4-yl)methyl)piperazin-1-yl)-2-(2,6-dioxopiperidin-3-yl)isoindoline-1,3-dione] | ≥ 0.1 |
| O=C1CCC(N2C(=O)c3ccc(OCCCCCCN4CCN(c5ccc(C(=O)N6CCC[C@@H](Nc7ncnc8[nH]cc(C(=O)c9ccc(Oc%10ccccc%10)cc9Cl)c78)C6)cn5)CC4)cc3C2=O)C(=O)N1 (stereo partly drawn) [Compound 3, 5-((6-(4-(5-((R)-3-((5-(2-chloro-4-phenoxybenzoyl)-7H-pyrrolo [2,3-d]pyrimidin-4-yl)amino)piperidine-1-carbonyl)pyridin-2-yl)piperazin-1-yl)hexyl)oxy)-2-(2,6-dioxopiperidin-3-yl)isoindoline-1,3-dione] | ≥ 0.1 |

Further lines, results first:

| DC50 [µM] | Compound |
| --- | --- |
| 0.01 to 0.1 | O=C1CCC(N2C(=O)c3ccc(N4CCN(CCCCCCCN5CCC(Nc6ncnc7[nH]cc(C(=O)c8ccc(Oc9ccccc9)cc8Cl)c67)CC5)CC4)cc3C2=O)C(=O)N1 (centres unmarked) [Compound 12, 5-(4-(7-(4-((5-(2-chloro-4-phenoxybenzoyl)-7H-pyrrolo[2,3-d]pyrimidin-4-yl)amino)piperidin-1-yl)heptyl)piperazin-1-yl)-2-(2,6-dioxopiperidin-3-yl)isoindoline-1,3-dione] |
| 0.01 to 0.1 | O=C1CC[C@H](N2C(=O)c3ccc(N4CCN(CCCCCCC(=O)N5CCC(Nc6ncnc7[nH]cc(C(=O)c8ccc(Oc9ccccc9)cc8Cl)c67)CC5)CC4)cc3C2=O)C(=O)N1 [Compound 22, 5-(4-(7-(4-((5-(2-chloro-4-phenoxybenzoyl)-7H-pyrrolo[2,3-d]pyrimidin-4-yl)amino)piperidin-1-yl)-7-oxoheptyl)piperazin-1-yl)-2-(2,6-dioxopiperidin-3-yl)isoindoline-1,3-dione] |
| 0.01 to 0.1 | O=C1CCC(N2Cc3cc(N4CCN(CCCCCCC(=O)N5CCC[C@@H](Nc6ncnc7[nH]cc(C(=O)c8ccc(Oc9ccccc9)cc8Cl)c67)C5)CC4)ccc3C2=O)C(=O)N1 (stereo partly drawn) [Compound 17, 3-(5-(4-(7-((R)-3-((5-(2-chloro-4-phenoxybenzoyl)-7H-pyrrolo[2,3-d]pyrimidin-4-yl)amino)piperidin-1-yl)-7-oxoheptyl)piperazin-1-yl)-1-oxoisoindolin-2-yl)piperidine-2,6-dione] |
| 0.01 to 0.1 | O=C1CCC(N2C(=O)c3ccc(N4CCN(CCCC(=O)N5CCC(Nc6ncnc7[nH]cc(C(=O)c8ccc(Oc9ccccc9)cc8Cl)c67)CC5)CC4)cc3C2=O)C(=O)N1 (centres unmarked) [Compound 23, 5-(4-(4-(4-((5-(2-chloro-4-phenoxybenzoyl)-7H-pyrrolo[2,3-d]pyrimidin-4-yl)amino)piperidin-1-yl)-4-oxobutyl)piperazin-1-yl)-2-(2,6-dioxopiperidin-3-yl)isoindoline-1,3-dione] |

Source: patent publication US11530222B2, “Substituted pyrrolopyrimidine and pyrazolopyrimidine as Bruton's tyrosine kinase (BTK) degraders” (ACCUTAR BIOTECHNOLOGY INC., priority 2021, dated 2022)
